Source: article PMC7305224, “Mutually stabilizing interactions between proto-peptides and RNA” (Nature Communications, 2020)

How the values were obtained:
Format in all cases: binding
[1] = test system: RNA duplex 1 (5′-rCrGrCrUrArArArUrCrG-3′ & 5′-rCrGrArUrUrUrArGrCrG-3′); assay: RNA thermal denaturation (Tm) by UV hyperchromicity at 260 nm with synthetic peptides/depsipeptides, RNA duplex 1; details: 100 mM NaCl
Experimental: Each sample contained RNA duplex 1 (5′-rCrGrCrUrArArArUrCrG-3′ and 5′-rCrGrArUrUrUrArGrCrG-3′, 2.5 μM strand) and peptide/depsipeptide (100 μM) in buffered solution (10 mM phosphate, 100 mM NaCl, pH 7.0 or 10 mM acetate, 100 mM NaCl, pH 5.0). a Structures of depsipeptides used to systematically characterize cationic side chain effects on RNA duplex stability. Lactic acid residues are highlighted. Ac acetyl, Aba acetamidobenzoic acid, which was appended to the N-terminus to increase UV absorbance. b Structures of the Fmoc-didepsipeptide building blocks used for solid-phase synthesis of depsipeptide sequences. Fmoc fluorenylmethoxycarbonyl. c Comparative effects of oligo-didepsipeptide sequences 2–6 and analogous oligo-dipeptide and on the Tm of the RNA duplex (number of independent measurements: n = 3 for Arg and Lys sequences; n = 2 for His and Dab sequences; n = 4 for Orn sequences). The shaded areas correspond to the mean ± SD Tm measured for the RNA duplex alone (n = 16 independent measurements). Data are shown as a scatter plot with mean ± SD. d Comparative effects on RNA duplex Tm of depsipeptide sequences containing a single backbone ester (number of independent measurements: n = 3 for Arg; n = 2 for His, Orn, and Dab; n = 4 for Lys), relative to RNA duplex alone (n = 16 independent measurements). Data are shown as a scatter plot with mean ± SD. e To assess the impact of different cationic side chains on depsipeptide degradation rates, depsipeptides 7–11 (40 μM) were incubated at 37 °C in buffer (100 mM HEPES, 10 mM NaCl, pH 7.3). After 5 min, the reactions were quenched by the addition of 3% TFA, and samples were analyzed by HPLC.
(§1) Prior to Tm analyses, RNA samples were annealed in the appropriate buffer by heating to 75 °C and slowly cooling to room temperature. Depsipeptide/peptide was added to the annealed RNA and incubated at 4 °C for 20 min prior to carrying out the analysis. For analyses involving dry-down reaction mixtures, the Tm was determined by monitoring fluorescence increase upon melting of a fluorophore/quencher-labeled RNA duplex (5′-rCrGrArUrUrUrArGrCrG-/3IABkFQ/-3′ and 3′-rGrCrUrArArArUrCrGrC-FAM-5′) using a BioRad CFX Connect rtPCR instrument with a heating ramp of 1 °C/min and 20 μL final sample volumes. For analyses involving pure, synthetic compounds, the Tm of the RNA was determined by monitoring UV hyperchromicity at 260 nm using a Varian Cary Bio-100 spectrophotometer, with a heating ramp of 1 °C/min and 0.5- or 1-cm pathlength cells. The following RNA sequences were used: RNA duplex 1 = 5′-rCrGrCrUrArArArUrCrG-3′ and 5′-rCrGrArUrUrUrArGrCrG-3′; RNA duplex 2 = 5′-rArArArArUrUrUrArUrArUrUrArUrUrA-3′ and 5′-rUrArArUrArArUrArUrArArArUrUrUrU-3′; RNA duplex 3 = 5′-rArArCrGrUrArUrArCrGrUrU-3′ (palindromic); and H26a RNA = 5′-rArUrGrArGrUrArArCrCrGrUrArArGrGrUrGrArArArUrU-3′. RNA was present in each assay at a final concentration of 2.5 μM of the folded structure (2.5 μM each strand for duplex 1 and duplex 2, 5.0 μM palindromic strand for duplex 3, 2.5 μM strand for H26a RNA). Tm values were determined by nonlinear fitting of the melting curves using GraphPad Prism 8.2.1 for duplex 1 and H26a, or by finding the maximum of the first derivative of the curve using the Varian Cary Bio-100 software for duplex 2 and duplex 3.

[2] = test system: RNA duplex 2 (5′-rArArArArUrUrUrArUrArUrUrArUrUrA-3′ and 5′-rUrArArUrArArUrArUrArArArUrUrUrU-3′); assay: RNA thermal denaturation (Tm) by UV hyperchromicity, RNA duplex 2
Experimental: as §1, with “3. Both methods of determining the Tm gave similar values for a given denaturation curve.” for “3.”

[3] = test system: RNA duplex 3 (5′-rArArCrGrUrArUrArCrGrUrU-3′, palindromic); assay: RNA thermal denaturation (Tm) by UV hyperchromicity, RNA duplex 3
Experimental: as §1, with “3. Both methods of determining the Tm gave similar values for a given denaturation curve.” for “3.”

Substance: Aba-Gly-Ala-Dab-Lys-Ala-Dab-Lys-lac-Dab-Lys-Ala-Dab-Lys-NH2 [compound 9]
- RNA duplex 1 Tm ([1]; observed Tm with peptide/depsipeptide 100 µM, pH 7.0, 10 mM phosphate, RNA alone 43.8 ± 0.4, mean ± SD of 2-4 independent experiments): 54.2 ± 1.3 °C
- RNA duplex 1 ΔTm ([1]; peptide/depsipeptide 100 μM, RNA 2.5 μM each strand, 10 mM phosphate, pH 7.0, vs RNA alone at matched pH, mean of 2–4 replicates): 10.4 °C
- RNA duplex 2 Tm ([2]; observed Tm with peptide/depsipeptide 100 µM, pH 7.0, RNA alone 33.7 ± 0.7, mean ± SD of 2-4 independent experiments): 41.8 ± 0.6 °C
- RNA duplex 2 ΔTm ([2]; peptide/depsipeptide 100 μM, RNA 2.5 μM each strand, pH 7.0, 10 mM phosphate, 100 mM NaCl, mean of 2–4 replicates): 8.2 °C
- RNA duplex 3 Tm ([3]; observed Tm with peptide/depsipeptide 100 µM, pH 7.0, RNA alone 48.6 ± 0.7, mean ± SD of 2-4 independent experiments): 58.5 ± 0.7 °C
- RNA duplex 3 ΔTm ([3]; peptide/depsipeptide 100 μM, 5.0 μM palindromic strand, pH 7.0, 10 mM phosphate, 100 mM NaCl, mean of 2–4 replicates): 9.9 °C
